Reference: US20140072662A1, “Andrographis Paniculata Compositions and Methods for Treatment of Addictions” (Omeros Corporation, priority 2012, published 2014)
“Also recorded” adds a separate entry of the source.

Tested on: msP rats
Test: Central PPAR antagonist GW9662 on andrographolide-induced reduction of alcohol intake in msP rats
Type: in vivo, rat
Conditions: GW9662 5 μg/rat ICV alone, twice daily, 6 days; p>0.05
Method: GW9662, purchased from Tocris (Bristol, UK), was dissolved in 10% DMSO and 3% Tween 80 and the final volume (5 μg/μl) was adjusted adding distilled water. GW9662 was injected ICV in a volume of 1 μl per rat by means of a stainless-steel injector 2.5 mm longer than the guide cannula, so that its tip protruded into the ventricle.
A 22-gauge guide cannula for intracerebroventricular (ICV) drug injections was stereotaxically implanted into the lateral cerebroventricle with the following coordinates: anteroposterior (AP)=1.0; lateral (L)=1.8; ventral (V)=2.0 with reference to bregma.
A widely used method for testing fluid preference is the two-bottle choice paradigm, in which water and 10% (v/v) alcohol solution were offered in graduated drinking tubes equipped with metallic drinking spouts and their consumption was measured by reading the volume consumed from the graduated tubes. Food intake was measured by weighing the food containers and taking into account spillage. Alcohol, water and food intakes are expressed as g/kg to reduce the influence of differences in body weight.
To examine whether the effect of andrographolide on alcohol intake is mediated by brain PPAR receptors, another group of msP rats (N=31) was treated ICV with 5 μg/rat of the PPAR antagonist GW9662 and then injected with andrographolide (10 mg/kg) or its vehicle. In a between-subject design each group of animals (N=7-8/group) received a different drug dose for 6 consecutive days. GW9662 or its vehicle were administered twice daily at 12 hours and 30 minutes before the beginning of the dark period of the light-dark cycle. Andrographolide was given immediately after GW9662 administrations.
Alcohol, water, and food intake was recorded at 0.5, 2, 8 and 24 hours from the moment that alcohol was made available.
In the case of `O=C(Nc1ccccc1)c1cc([N+](=O)[O-])ccc1Cl` [GW9662], the alcohol drinking is reported as “no similar effect”.

Same assay, conditions: GW9662 5 μg/rat ICV given before andrographolide 10 mg/kg
In the case of `O=C(Nc1ccccc1)c1cc([N+](=O)[O-])ccc1Cl` [GW9662], the “blockade of the andrographolide effect on alcohol drinking” value is reported as “blocked the effect of andrographolide at 8 and 24 hours starting from the third day of treatment; also recorded: completely prevents the andrographolide effect on alcohol drinking”.

Molecular target: T1, PPARγ (Mus musculus, UniProt P37238)
T1 construct: host or cells: 3T3-L1
T1 sequence (P37238 1-505): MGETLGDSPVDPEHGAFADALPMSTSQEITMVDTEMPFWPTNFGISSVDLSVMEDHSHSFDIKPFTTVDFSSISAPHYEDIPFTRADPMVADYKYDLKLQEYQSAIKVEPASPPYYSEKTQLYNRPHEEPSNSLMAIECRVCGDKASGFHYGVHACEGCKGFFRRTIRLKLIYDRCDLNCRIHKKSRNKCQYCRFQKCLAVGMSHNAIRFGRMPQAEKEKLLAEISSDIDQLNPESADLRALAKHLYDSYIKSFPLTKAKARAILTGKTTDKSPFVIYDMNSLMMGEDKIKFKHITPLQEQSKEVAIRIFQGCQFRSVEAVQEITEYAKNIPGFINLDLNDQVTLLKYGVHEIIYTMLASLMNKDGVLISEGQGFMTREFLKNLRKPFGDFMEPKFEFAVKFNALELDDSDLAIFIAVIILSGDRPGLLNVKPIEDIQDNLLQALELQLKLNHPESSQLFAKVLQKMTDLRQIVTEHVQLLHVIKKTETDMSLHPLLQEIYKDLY
Test: not given
Conditions: 3T3-L1 preadipocytes; cited from earlier work
For `CC1=CC(=O)CC(C)(C)[C@@]1(O)/C=C/C(C)=C\C(=O)O` [abscisic acid], the “activity of PPARγ” value is given as “increase the activity of PPARγ”.

Molecular target: T2, GAL-4-PPAR-gamma chimera (Homo sapiens, UniProt P37231)
T2 construct: GAL-4 (fusion partner of the chimera)
T2 sequence (P37231 with tags, fused parts or gaps limits assumed): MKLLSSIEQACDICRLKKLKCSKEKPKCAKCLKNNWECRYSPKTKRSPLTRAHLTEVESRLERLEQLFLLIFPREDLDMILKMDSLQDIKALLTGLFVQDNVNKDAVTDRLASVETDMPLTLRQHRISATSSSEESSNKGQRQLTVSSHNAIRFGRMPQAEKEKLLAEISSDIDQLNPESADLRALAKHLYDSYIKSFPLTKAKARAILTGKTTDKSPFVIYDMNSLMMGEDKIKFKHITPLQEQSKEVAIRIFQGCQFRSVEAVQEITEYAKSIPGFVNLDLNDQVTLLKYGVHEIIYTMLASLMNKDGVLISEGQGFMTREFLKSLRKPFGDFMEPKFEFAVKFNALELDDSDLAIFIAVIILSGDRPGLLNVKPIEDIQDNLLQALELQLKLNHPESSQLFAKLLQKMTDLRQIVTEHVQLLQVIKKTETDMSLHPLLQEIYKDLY
Test: not given
Conditions: compounds isolated from EtOH extract of licorice; cited from earlier work
For `CC1(C)C=Cc2c(ccc3c2OC[C@@H](c2cc(C=O)c(O)cc2O)C3)O1` [5′-formylglabridin], the PPAR-gamma ligand-binding activity is given as “significant PPAR-gamma ligand-binding activity”. For `CC(C)=CCc1cc([C@H]2Oc3cc(O)ccc3C[C@H]2O)ccc1O` [(2R,3R)-3,4′,7-trihydroxy-3′-prenylflavane], the PPAR-gamma ligand-binding activity is listed as “significant PPAR-gamma ligand-binding activity”. In the case of `COc1ccc([C@@H]2COc3cc(O)ccc3C2)c(O)c1O` [(3R)-2′,3′,7-trihydroxy-4′-methoxyisoflavan], the PPAR-gamma ligand-binding activity is given as “significant PPAR-gamma ligand-binding activity”. For `COc1cc(O)ccc1/C=C/C(=O)c1ccc(O)cc1` [echinatin], the PPAR-gamma ligand-binding activity is given as “significant PPAR-gamma ligand-binding activity”. For `CC(C)=CCc1c(O)cc(O)c2c(=O)c(-c3ccc(O)c(O)c3)coc12` [gancaonin L], the PPAR-gamma ligand-binding activity is listed as “significant PPAR-gamma ligand-binding activity”. In the case of `CC(C)=CCc1cc([C@@H]2CC(=O)c3ccc(O)c(CC=C(C)C)c3O2)ccc1O` [glabrol], the PPAR-gamma ligand-binding activity is given as “significant PPAR-gamma ligand-binding activity”. For `CC1(C)C=Cc2c(ccc(-c3coc4cc(O)ccc4c3=O)c2O)O1` [glabrone], the PPAR-gamma ligand-binding activity is listed as “significant PPAR-gamma ligand-binding activity”. In the case of `CC1(C)C=Cc2c(ccc3cc(-c4ccc(O)cc4O)c(=O)oc23)O1` [kanzonol W], the PPAR-gamma ligand-binding activity is given as “significant PPAR-gamma ligand-binding activity”. In the case of `CC(C)=CCc1c(O)ccc([C@@H]2COc3c(ccc(O)c3CC=C(C)C)C2)c1O` [kanzonol X], the PPAR-gamma ligand-binding activity is given as “significant PPAR-gamma ligand-binding activity”. For `CC(C)=CCc1cc([C@@H]2CC(=O)c3ccc4c(c3O2)C=CC(C)(C)O4)ccc1O` [shinflavanone], the PPAR-gamma ligand-binding activity is given as “significant PPAR-gamma ligand-binding activity”. For `CC1(C)C=Cc2c(ccc3c2OC[C@H]2c4ccc(O)cc4O[C@@H]32)O1` [shinpterocarpin], the PPAR-gamma ligand-binding activity is listed as “significant PPAR-gamma ligand-binding activity”. For licoflavanone A, the PPAR-gamma ligand-binding activity is listed as “significant PPAR-gamma ligand-binding activity”.

Molecular target: T3, PPARγ (Homo sapiens, UniProt P37231)
T3 sequence (P37231 1-505): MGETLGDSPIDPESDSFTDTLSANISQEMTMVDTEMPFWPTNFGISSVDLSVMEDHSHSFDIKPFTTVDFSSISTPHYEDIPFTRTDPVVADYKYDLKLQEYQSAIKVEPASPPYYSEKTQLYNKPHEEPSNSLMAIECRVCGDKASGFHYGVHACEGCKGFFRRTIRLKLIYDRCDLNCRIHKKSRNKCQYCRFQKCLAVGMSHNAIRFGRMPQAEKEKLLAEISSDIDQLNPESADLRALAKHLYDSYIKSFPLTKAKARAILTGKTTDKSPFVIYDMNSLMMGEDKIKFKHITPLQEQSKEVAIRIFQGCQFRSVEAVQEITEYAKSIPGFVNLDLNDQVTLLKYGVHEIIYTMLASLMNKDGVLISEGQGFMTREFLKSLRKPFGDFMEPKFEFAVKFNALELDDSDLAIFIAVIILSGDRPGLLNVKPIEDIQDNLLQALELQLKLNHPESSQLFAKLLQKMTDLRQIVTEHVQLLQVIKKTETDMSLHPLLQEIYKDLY
Test: not given
Conditions: cited from earlier work
In the case of `CC(C)=CCCC(C)CCO` (centres unmarked) [Citronellol, citronellol], the “activation of PPARγ” value is listed as “activate PPARγ”. In the case of `CC(C)=CCC/C(C)=C/CO` [geraniol], the “activation of PPARγ” value is listed as “activate PPARγ”. In the case of `CC(C)=CCC/C(C)=C\CO` [nerol], the “activation of PPARγ” value is listed as “not”.

Molecular target: T3, PPARγ
Test: not given
Conditions: cited from earlier work
Remark: another data set of the same source
For `COc1ccc(-c2coc3cc(O)cc(O)c3c2=O)cc1` [biochanin A], the “activation of PPARγ” value is listed as “potent activators of PPARγ”. For `O=c1c(-c2ccc(O)cc2)coc2cc(O)cc(O)c12` [genistein], the “activation of PPARγ” value is given as “potent activators of PPARγ”.
